According to PubChem BioAssay AID2838 (The Scripps Research Institute Molecular Screening Center, 2010):
Active and inactive are the calls of the source.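 The calls were made as follows: active = IC50 at or below 10 µM; inactive = IC50 above 10 µM.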

Target: tRNA 2'-phosphotransferase Tpt1 (Candida albicans SC5314)
Assay: tRNA 2'-phosphotransferase enzyme inhibition potency – biochemical, fluorescence polarization, dose response, late-stage follow-up (AID 2838)
Details: recombinant caTpt1, RNase T1-coupled fluorescence polarization

IC50	Structure (SMILES)
> 49.8 µM (inactive)	OC(Cn1cncn1)(Cn1cncn1)c1ccc(F)cc1F
> 49.8 µM (inactive)	CC1=C(C#N)C(=O)N(C2CCS(=O)(=O)C2)C(=O)/C1=C\c1ccco1 (centres undefined)
inactive	NC(=O)c1cc[n+](CC2=C(C(=O)O)N3C(=O)[C@@H](NC(=O)C(c4ccccc4)S(=O)(=O)O)[C@H]3SC2)cc1 (some centres undefined)
> 49.8 µM (inactive)	NS(=O)(=O)c1cc(C(=O)NC2CCSc3ccccc32)ccc1Cl (centres undefined)
